Values quoted from earlier work in US8470822B2, “Folate mimetics and folate-receptor binding conjugates thereof” (Purdue Research Foundation, priority 2001, dated 2013).

Tested on: high-affinity folate receptor
Conditions: 2 μM pteroic acid (100-fold excess); cited from earlier work

Nc1nc2ncc(CNc3ccc(C(=O)O)cc3)nc2c(=O)[nH]1 [pteroic acid]
effect on the binding of folate to the folate receptor: absolutely no effect
